Data set [1] is described as follows: Crossflow nanofiltration of CPS-pretreated water. Particulars: for PFAS concentration, membrane permeates (MP): CPS-nanofiltration @ 9 h. The method, then:
(§1) The water samples were collected from the same site of the C-23 canal during both the dry and wet seasons. However, only wet season water samples were used in the experiment. The water samples were analyzed for both long-chain (PFOA and PFOS) and short-chain (Perfluorobutanoic acid [PFBA] and Perfluorobutanesulfonic acid [PFBS]) PFAS following the modified EPA 537.1 method (Shoemaker & Tettenhorst, 2020). Through this method, an aliquot of a 250 mL water sample containing analytes and internal standards is extracted via solid phase extraction. The extracted analytes and internal standards are then eluted with methanol and ammonium hydroxide in methanol solvent. Then the eluted samples are dried with nitrogen and reconstituted to 1 mL volume with a buffer solution. The samples are then injected into a C18 liquid chromatography column, and the PFAS compounds are separated by a gradient of pure methanol and 20 mM ammonium acetate. Finally, the eluted compounds are detected, and their concentrations are measured via tandem mass spectrometry. The method detection limits (MDLs) for PFBA, PFBS, PFOA, and PFOS were 0.5 ng·L^−1, 2 ng·L^−1, 0.5 ng·L^−1, and 1 ng·L^−1, respectively. The concentration of calcium ion (Ca^2+) was analyzed at Eurofins Flowers's Chemical Laboratories (Altamonte Springs, Florida) following EPA method 6010D using inductively coupled plasma optical emission spectroscopy (MDL=0.096 mg·L^−1). Total organic carbon (TOC) and dissolved organic carbon (DOC) were measured using a TOC analyzer following EPA method 415.3.
(§2) A commercially available nanofiltration membrane (membrane ID: XN45) was used for the crossflow nanofiltration experiment. The membranes were acquired as flat sheets and cut into coupons of required sizes (active surface area of 42 cm^2) to fit into a membrane cell (CF042).
(§3) A bench-scale crossflow filtration setup was used in these experimental methods. The experimental setup consisted of a feed tank, a centrifugal pump, three CF042 membrane cells connected to pressure gauges, check valves, and flowmeters. A recirculating chiller was used for regulating the temperature at 20° C. Three high-precision balances were used to measure the weight of the collected permeate and to calculate the flowrates. The scales were connected to a computer for data acquisition.
(§4) Before each experimental run, the membrane cells and tubing were cleaned by running DI water as feed without placing any membrane coupons inside the cells. Then the membrane coupons were mounted into the cells firmly and compacted at 100 psi for at least 4 h using DI water. After that, 5 L of the effluents from the pretreatment media (i.e., the C-23 water samples that were run through the CPS and ZIPGEM) were taken as feedwater for each nanofiltration filtration experiment. The experiments were run for 24 h before collecting permeates and feed samples for analysis. The experiments were conducted at a constant flowrate of 1.0 L·min^−1, with a corresponding cross flow velocity of 0.18 m·s^−1. The transmembrane pressure was initially set to 110 psi at the beginning of the permeate collection by regulating inlet and retentate valves. However, the pressure changed over time as feed concentration increased during the permeate collection. The experiment was run in total recirculation mode, whereby both the retentate and permeate were recycled, except the time of permeate collection.
(§5) The average removal efficiencies of each media pretreatment were calculated based on PFAS concentrations in the influents and effluents of triplicate columns, as disclosed in TABLE 5. […] The overall efficiency of the hybrid treatment was calculated by comparing the average concentrations of PFAS in the influents of the green sorption media pretreatment columns and the nanofiltration permeates, as disclosed in TABLE 6. […]

Data set [2] in a line: Overall removal by ZIPGEM-nanofiltration water treatment system. The text has this:
(§6) Water samples collected from the C-23 canal were first fortified with PFOS and PFOA and then used as influents to the pretreatment column containing one of the two green sorption media. Note the water samples were not fortified with PFBA and PFBS. The green sorption media effluent served as the feedwater for the nanofiltration unit of the proposed water treatment system. The nanofiltration membrane unit without any green sorption media-based pretreatment served as the “control.” The integration of a green sorption media (CPS or ZIPGEM) with crossflow nanofiltration is herein referred to as a water treatment system, denoted as CPS-nanofiltration or ZIPGEM-nanofiltration. The CPS and ZIPGEM column influents and effluents and nanofiltration permeates were analyzed for both long-chain (PFOS and PFOA) and short-chain (PFBS and PFBA) PFAS. FIG. 3 presents the green sorption media-nanofiltration hybrid treatment scheme.
(§7) The average removal efficiencies of each media pretreatment were calculated based on PFAS concentrations in the influents and effluents of triplicate columns, as disclosed in TABLE 5. […] The overall efficiency of the hybrid treatment was calculated by comparing the average concentrations of PFAS in the influents of the green sorption media pretreatment columns and the nanofiltration permeates, as disclosed in TABLE 6.
(§8) where C0 is the concentration of PFAS in the column influent or nanofiltration feed in ng·L^−1, and where Ce is the concentration of PFAS in the column effluent or nanofiltration permeate in ng·L^−1. TABLE 7 summarizes the key findings of the green sorption media-based pretreatment and green sorption media-nanofiltration treatment, and these are explained in the subsequent subsection through an in-depth discussion and statistical analysis. It should be noted that PFOS concentration was slightly higher in the membrane permeates compared to the effluent of green sorption media pretreatment media, as disclosed in TABLE 5. The slight increase in PFOS concentration could be attributed to the filtration experimental setup that operated in a total recirculation mode. However, most of the differences were very close to the MDL for PFOS (1 ng·L^−1), which was already undetected in the green sorption media effluent

A short description of data set [3]: Control: nanofiltration without green sorption media pretreatment. On the procedure: as §1, §6
A bench-scale crossflow filtration setup was used in these experimental methods. The experimental setup consisted of a feed tank, a centrifugal pump, three CF042 membrane cells connected to pressure gauges, check valves, and flowmeters. A recirculating chiller was used for regulating the temperature at 20° C. […]

The nature of data set [4]: Crossflow nanofiltration of ZIPGEM-pretreated water. Particulars: for PFAS concentration, membrane permeates (MP): ZIPGEM-nanofiltration @ 30 h. The method, then: as §1, §2, §3, §4, §5
Data set [5] can be described thus: Overall removal by CPS-nanofiltration water treatment system.
Description: as §6, §7, §8

The conditions of data set [6]: cited from earlier work.
[7] abbreviates: feed = ZIPGEM column 1 effluent.
Where [8] appears, read: feed = ZIPGEM column 2 effluent.
Where [9] appears, read: feed = ZIPGEM column 3 effluent.

SMILES strings stand for the structures.

One may read the pKa as the negative logarithm of the acid dissociation constant.

Turning to `O=C(O)C(F)(F)C(F)(F)C(F)(F)F` [PFBA, Perfluorobutanoic acid], the “PFAS concentration, membrane permeates (MP)” value (from here on “PFAS concentration”) in data set [1] (Col 1) amounted to 3.20 ng/L; in data set [1] (Col 2), 4.17 ng/L; in data set [1] (Col 3), 3.60 ng/L; in data set [4] (Col 1), 4.43 ng/L; in data set [4] (Col 2), 4.77 ng/L; in data set [4] (Col 3), 4.70 ng/L. For the same compound, the nanofiltration membrane removal in data set [1] (feed = CPS column 1 effluent) is given as 47%; in data set [1] (feed = CPS column 2 effluent) it was 28%; in data set [1] (feed = CPS column 3 effluent) it was 33%; in data set [4] (setting [7]), 37%; in data set [4] (setting [8]) it was 32%; in data set [4] (setting [9]), 36%. Moreover, the “O = overall removal by water treatment system” value (shortened to “O = overall removal”) is reported as 40% in data set [2] (column 1); 36% in data set [2] (column 2); 41% in data set [2] (column 3); 58% in data set [5] (column 1); 45% in data set [5] (column 2); 53% in data set [5] (column 3). Also, the “% Removal by Control, O” value in data set [3] came out at 67%. The pKa in data set [6] is on record as 0.40.
Consider `O=S(=O)(O)C(F)(F)C(F)(F)C(F)(F)C(F)(F)F` [PFBS, Perfluorobutanesulfonic acid], for which the “PFAS concentration” value in data set [1] (Col 1) amounted to 3.27 ng/L; in data set [1] (Col 2), 3.40 ng/L; in data set [1] (Col 3), 2.67 ng/L; in data set [4] (Col 1), 4.67 ng/L; in data set [4] (Col 2) it was 4.23 ng/L; in data set [4] (Col 3), 5.10 ng/L. In addition, the nanofiltration membrane removal in data set [1] (feed = CPS column 1 effluent) came out at 26%; in data set [1] (feed = CPS column 2 effluent), 15%; in data set [1] (feed = CPS column 3 effluent), 35%; in data set [4] (setting [7]) it was 23%; in data set [4] (setting [8]) it was 32%; in data set [4] (setting [9]), 36%. The “O = overall removal” value in data set [2] (column 1) is reported as 28%; in data set [2] (column 2) it was 35%; in data set [2] (column 3) it was 35%; in data set [5] (column 1) it was 41%; in data set [5] (column 2) it was 38%; in data set [5] (column 3) it was 52%. Besides, the “% Removal by Control, O” value in data set [3] came out at 44%. Also, the pKa in data set [6] is listed as 0.14.
For `O=C(O)C(F)(F)C(F)(F)C(F)(F)C(F)(F)C(F)(F)C(F)(F)C(F)(F)F` [PFOA, Perfluorooctanoic acid], the “PFAS concentration” value in data set [1] (Col 1) amounted to 2.27 ng/L; in data set [1] (Col 2), 5.83 ng/L; in data set [1] (Col 3) it was 2.43 ng/L; in data set [4] (Col 1), 21.67 ng/L; in data set [4] (Col 2), 14.00 ng/L; in data set [4] (Col 3), 23.67 ng/L. The nanofiltration membrane removal came out at 40% in data set [1] (feed = CPS column 1 effluent); 58% in data set [1] (feed = CPS column 2 effluent); 78% in data set [1] (feed = CPS column 3 effluent); 66% in data set [4] (setting [7]); 78% in data set [4] (setting [8]); 68% in data set [4] (setting [9]). In addition, the “O = overall removal” value in data set [2] (column 1) is 73%; in data set [2] (column 2), 82%; in data set [2] (column 3), 70%; in data set [5] (column 1), 98%; in data set [5] (column 2), 94%; in data set [5] (column 3), 97%. Also, the “% Removal by Control, O” value in data set [3] is given as 82%. Moreover, the pKa in data set [6] is recorded as −0.20.
For `O=S(=O)(O)C(F)(F)C(F)(F)C(F)(F)C(F)(F)C(F)(F)C(F)(F)C(F)(F)C(F)(F)F` [PFOS, Perfluorooctanesulfonic acid], the “PFAS concentration” value worked out at 2.0 ng/L in data set [1] (Col 1); 1.90 ng/L in data set [1] (Col 2); 0.74 ng/L in data set [1] (Col 3); 1.70 ng/L in data set [4] (Col 1); 0.79 ng/L in data set [4] (Col 2); 1.05 ng/L in data set [4] (Col 3). Also, the nanofiltration membrane removal in data set [1] (feed = CPS column 1 effluent), in data set [1] (feed = CPS column 2 effluent), in data set [1] (feed = CPS column 3 effluent), in data set [4] (setting [7]), in data set [4] (setting [8]) and in data set [4] (setting [9]) was 100% each time. Further, the “O = overall removal” value in data set [2] (column 1), in data set [2] (column 2), in data set [2] (column 3), in data set [5] (column 1), in data set [5] (column 2) and in data set [5] (column 3) was 100% in each case. The “% Removal by Control, O” value in data set [3] turned out to be 84%. The pKa in data set [6] was 0.14.
